pIC50: −log10 of the molar value.
System: CCRF-CEM
Experiment: Growth inhibition of CCRF-CEM human leukemic lymphoblasts
Type: functional, cell-based

Row | Structure (SMILES) | pIC50
1 | CCC(Cc1cnc2nc(N)nc(N)c2n1)c1ccc(C(=O)NC(CCCNC(=O)c2ccccc2C(=O)O)C(=O)O)cc1 (centres undefined) | 8.92
2 | Nc1nc(N)c2nc(CNc3ccc(C(=O)NC(CCSCNC(=O)c4ccccc4C(=O)O)C(=O)O)cc3)cnc2n1 (centres undefined) | 8.30
3 | Nc1nc(N)c2nc(CCc3ccc(C(=O)NC(CCCNC(=O)c4ccccc4C(=O)O)C(=O)O)cc3)cnc2n1 (centres undefined) | 9.28
4 | CC(Cc1cnc2nc(N)nc(N)c2n1)c1ccc(C(=O)NC(CCCNC(=O)c2ccccc2C(=O)O)C(=O)O)cc1 (centres undefined) | 9.20
5 | Nc1nc(N)c2nc(CNc3ccc(C(=O)NC(CCCNC(=O)c4ccc(C(=O)O)cc4)C(=O)O)cc3)cnc2n1 (centres undefined) | 7.26
6 | Nc1nc(N)c2nc(CNc3ccc(C(=O)NC(CCCNC(=O)c4ccccc4C(=O)O)C(=O)O)c4ccccc34)cnc2n1 (centres undefined) | 8.92
7 | Nc1nc(N)c2nc(CNc3ccc(C(=O)NC(CCCNC(=O)c4cccc(C(=O)O)c4)C(=O)O)cc3)cnc2n1 (centres undefined) | 8.12
8 | Nc1nc(N)c2nc(CNc3ccc(C(=O)NC(CCNC(=O)c4ccccc4C(=O)O)C(=O)O)cc3)cnc2n1 (centres undefined) | 8.26
9 | CCC(Cc1cnc2nc(N)nc(N)c2n1)(C(=O)OC)c1ccc(C(=O)NC(CCCNC(=O)c2ccccc2C(=O)O)C(=O)O)cc1 (centres undefined) | 7.27
10 | Nc1nc(N)c2nc(CNc3ccc(C(=O)NC(CSCNC(=O)c4ccccc4C(=O)O)C(=O)O)cc3)cnc2n1 (centres undefined) | 8.36
11 | Nc1nc(N)c2nc(CNc3ccc(C(=O)NC(CNC(=O)c4ccccc4C(=O)O)C(=O)O)cc3)cnc2n1 (centres undefined) | 8.29
12 | Nc1nc(N)c2nc(CNc3ccc(C(=O)NC(CCCCNC(=O)c4ccccc4C(=O)O)C(=O)O)cc3)cnc2n1 (centres undefined) | 8.54
13 | Nc1nc(N)c2nc(CNc3ccc(C(=O)N[C@@H](CCC(=O)O)C(=O)O)cc3)cnc2n1 [AMINOPTERIN] | 8.36
14 | CCC(Cc1cnc2nc(N)nc(N)c2n1)c1ccc(C(=O)N[C@@H](CCC(=O)O)C(=O)O)cc1 (some centres undefined) [EDATREXATE] | 8.48

Reference: ChEMBL document CHEMBL1132921, “Analogues of the potent nonpolyglutamatable antifolate N(alpha)-(4-amino-4-deoxypteroyl)-N(delta)-hemiphthaloyl-L-ornithine (PT523) with modifications in the side chain, p-aminobenzoyl moiety, or 9,10-bridge: synthesis and in vitro antitumor activity” (J Med Chem, 2000)
